Assays:
Assay type in all cases: cell-based, human
[1] = test system: patient-derived organoids (lung cancer); experiment: Patient tumor tissue-derived organoid assay (area, caspase activity)
Protocol: Next, drug efficacy in patient tumor tissue-derived organoids was determined. Approximately 5000 cells/sample from 2 surgical samples were seeded in an ultra-low attachment plate and incubated at 37° C. […] In one of the patient-derived organoids, cisplatin treatment alone decreased spheroid area and increased apoptosis as measured by green intensity (FIG. 11D). […] Indeed, by 72 hours carfilzomib at a concentration of 2.5 μM induced 5-fold increase in caspase activity compared to cisplatin alone but there was not much change in the spheroid area (FIGS. 11E-11F). Thus, no additive effect was apparent in this patient sample. […] The efficacy of ITGB4 antibody in disrupting organoid growth and inducing apoptosis was also tested.

[2] = test system: ITGB4, PXN, USP1, VDAC1, CD133 in patient-derived organoids; experiment: Immunoblot of treated patient-derived organoids; conditions: 48 hours, printed 2.5 mM and 5 mM
[3] = test system: ITGB4, PXN, FAK, MET, γH2AX, cleaved PARP in H1993 cells; experiment: Immunoblot; conditions: cisplatin 10 μM, 3 days
Protocol: (§1) West blotting: Cell lysates were prepared with 1×RIPA buffer (MilliporeSigma) and denatured in 1× reducing sample buffer at 95° C. for 5 minutes. Protein samples (15 μg) were run on 4-15% TGX gels (Bio-Rad, Hercules, Calif., USA) and transferred onto nitrocellulose membranes (Bio-Rad). Blots were blocked with 5% non-fat milk in TBS-T for 1 hour at room temperature and probed with primary antibody diluted in 2.5% BSA in TBS-T overnight at 4° C. After three washes with TBS-T, blots were incubated with HRP-conjugated secondary antibodies for 2 hours at room temperature. After three more washes, bands of interest were visualized via chemiluminescence using Western Bright ECL HRP substrate (Advansta, Menlo Park, Calif., USA) and imaged with the ChemiDoc MP imager (Bio-Rad).
(§2) Then a sublethal dose was used to determine the effect of these compounds on ITGB4 and PXN expression and caspase activity (FIG. 9I). […] These eleven compounds were further screened in the cisplatin-resistant cell line H2009. […] Further, carfilzomib was tested in another cisplatin-resistant cell line H1993.

[4] = test system: ITGB4, PXN, FAK, p27, phospho-Rb, γH2AX, cleaved PARP in H2009 cells; experiment: Immunoblot; conditions: cisplatin 10 μM, 3 days
Protocol: as §1, §2

[5] = test system: ITGB4 expression in H2009 cells; experiment: FACS analysis with ITGB4 antibody after cisplatin; conditions: cisplatin for 4 days, FACS on day 5
Protocol: Fluorescence-activated cell sorting (FACS) and analysis: Cells were trypsinized and resuspended (5 million) in PBS with 2% FBS. Cells were stained with ITGB4 antibody conjugated to Alexa Fluor® 488 (5 μl/1 million cells) (R&D Systems, Minneapolis, Minn., USA) and Propidium Iodide Ready Flow™ Reagent (1 drop/1 million cells) (Invitrogen) for 30 minutes at 4° C. The Analytical Cytometry Core Facility at City of Hope carried out and assisted all FACS sorting and analysis experiments. Gates were set to sort cell populations having low 10% and high 10% expression of ITGB4 using the FACSAria™ Fusion (BD Biosciences, San Jose, Calif., USA). Sorted cells were immediately cultured in 12-well plates and treated with cisplatin (1 μM) for 48 hours. Then, equal number of untreated and treated cells were collected and stained with same reagents as above. FACS analysis was performed to determine shifts in cell population using the Attune NxT Flow Cytometer (Invitrogen).
To test the predictions made by the model, H2009 cells were treated with cisplatin for 4 days. On day 5, they were subjected to FACS analysis using an ITGB4 antibody. […] In presence of stress, the cells either increased the expression of ITGB4 or the cells having high ITGB4 get selected (FIG. 13B). […] The cells were then counted, and an equal number of cells were stained with ITGB4 antibody and PI and analyzed by FACS sorting.

[6] = test system: H1993 cells; experiment: IncuCyte cell proliferation and caspase-3/7 apoptosis assay
Protocol: (§3) Cell proliferation and apoptosis assay. Cell proliferation assays were performed using cell lines stably transfected with NucLight Red Lentivirus (Essen Bioscience) to accurately visualize and count the nucleus of a single cell. Cells were seeded on a 96-well plate and allowed to adhere for 24 hours. Test compounds were added at indicated concentrations. Caspase-3/7 Green Apoptosis Reagent (Essen Bioscience) was also added as a green fluorescent indicator of caspase-3/7-mediated apoptotic activity. To monitor cell proliferation and apoptosis over time, the plate was placed in the IncuCyte S3 Live-Cell Analysis System (Essen BioScience) and images were acquired every 2 hours. Data analysis was generated by the IncuCyte software using a red fluorescence mask to accurately count each cell nucleus and a green fluorescence mask to measure apoptosis over time.
(§4) To determine whether the inhibition in cell proliferation associated with ITGB4 knockdown was due to enhanced apoptosis or reduced cell division (cytostatic), the Essen Bioscience Caspase-3/7 Green apoptosis assay in live cells was conducted. The NucView™[…], a DNA intercalating dye was used to enable quantification of apoptosis over time. The dye is impermeable and non-toxic to cells but once the cell membrane is permeabilized by caspase-3/7, the dye enters the cell and gets activated due to change in pH leading to the generation of green fluorescence that is then detected in real time and quantified using the IncuCyte System (FIG. 4B).
To address this, H1993 and H2009 cells were treated with cisplatin for 3 days and the changes were analyzed by immunoblotting. […] Next, H1993 and H2009 cells were transiently transfected with ITGB4 siRNA and 24 hours post-transfection they were treated with 10 μM cisplatin and cell proliferation and caspase activity were determined. […] However, in response to cisplatin in ITGB4 knockdown cells, the fold change dipped to <1, alluding to a cytotoxic effect (FIG. 4C). […] However, cell death was not due to caspase activation but appeared to be due to cell bursting which is seen in anoikis (FIGS. 3K and 3L). […]

[7] = test system: H2009 cells; experiment: as above; conditions: 10 μM cisplatin alone
Protocol: as §3, §4
To address this, H1993 and H2009 cells were treated with cisplatin for 3 days and the changes were analyzed by immunoblotting. […] Next, H1993 and H2009 cells were transiently transfected with ITGB4 siRNA and 24 hours post-transfection they were treated with 10 μM cisplatin and cell proliferation and caspase activity were determined. […] However, in response to cisplatin in ITGB4 knockdown cells, the fold change dipped to <1, alluding to a cytotoxic effect (FIG. 4C). […] However, cell death was not due to caspase activation but appeared to be due to cell bursting which is seen in anoikis (FIGS. 3K and 3L).

SMILES: N.N.[Cl][Pt][Cl] [Cisplatin, Cis-diamminedichloroplatinum(II)]
- spheroid area ([1]; patient LCSC2): decreased the spheroid area
- organoid size ([1]; patient LCSC4, cisplatin 5 μM alone, carfilzomib 2.5 μM alone): decreased the size of the organoid
- caspase activity ([1]; second patient (LCSC2) organoids, drug alone): did not induce any caspase activity
- protein expression by immunoblot [2]: minimal effect
- protein expression by immunoblot [3]: reduction in the expression of phosphorylated as well as total FAK and PXN
- protein expression by immunoblot [4]: reduction in the expression of phosphorylated as well as total FAK and PXN
- decrease in ITGB4 low-expressing cells compared to untreated [5]: 15%
- caspase activity ([6]; 10 μM cisplatin alone): did not induce caspase activity
- fold change in cell count ([6]; ITGB4 knockdown or 10 μM cisplatin alone, cytostatic): ~1 fold
- apoptosis [7]: induced apoptosis in H2009 cell by 72 hours

Reference: patent US20210283211A1, “COMPOSITIONS AND METHODS OF ALLEVIATING RESISTANCE TO CHEMOTHERAPY” (CITY OF HOPE, priority 2019, published 2021)
